According to patent publication US4218443A, “Polyether ionophores as antiobesity and hypotriglyceridemic agents” (Hoffmann-La Roche Inc., priority 1979, dated 1980):
Like-named read-outs stand apart in the source and are kept apart here.

Tests used:
[1] = target: T1, human pancreatic lipase (Homo sapiens, UniProt P16233); test: In vitro titrimetric (Radiometer pH-stat) pancreatic lipase assay, Dixon plots; type: biochemical; settings: in vitro Radiometer assay, read-out: Inhibition constants for bromolasalocid inhibition of human pancreatic lipase
T1 construct: Human pancreatic juice was obtained from a patient with acute pancreatitis; from tissue; host or cells: human pancreatic juice from the cannulated duct of a patient with acute pancreatitis; gift of Dr. George Nardi, Massachusetts General Hospital
T1 sequence (P16233 17-465): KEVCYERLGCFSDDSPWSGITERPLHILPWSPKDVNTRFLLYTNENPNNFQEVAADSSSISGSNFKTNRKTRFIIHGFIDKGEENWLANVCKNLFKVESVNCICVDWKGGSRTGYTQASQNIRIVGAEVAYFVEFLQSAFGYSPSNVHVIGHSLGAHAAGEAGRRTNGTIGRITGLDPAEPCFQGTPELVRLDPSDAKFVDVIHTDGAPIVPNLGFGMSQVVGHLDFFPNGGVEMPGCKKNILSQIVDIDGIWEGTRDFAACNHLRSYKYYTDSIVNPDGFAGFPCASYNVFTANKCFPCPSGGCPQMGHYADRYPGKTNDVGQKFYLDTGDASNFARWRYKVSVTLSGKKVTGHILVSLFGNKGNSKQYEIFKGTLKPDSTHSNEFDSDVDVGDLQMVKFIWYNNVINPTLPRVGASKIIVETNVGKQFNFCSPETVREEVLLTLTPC

[2] = system: fatty acid synthesis in isolated hepatocytes; test: In vitro fatty acid synthesis in isolated hepatocytes; type: cell-based, Charles River female rat; settings: Rattus norvegicus, Hepatocyte, 1 h, pH 7.4; for activity at 500 µM: 0.5 mM; for activity at 1000 µM: 1.0 mM
Procedure: Hepatocytes were prepared from meal-fed Charles River female rats as described previously, [A. C. Sullivan, J. Triscari, J. G. Hamilton and J. A. Ontko (1977). Hypolipidemic activity of (-)-hydroxycitrate, Lipids, 12: 1-9]. Briefly, rats were anesthetized with Nembutal, livers were perfused in situ and hepatocytes were isolated in Krebs-Henseleit bicarbonate buffer, pH 7.4. Incubations with isolated hepatocytes were performed in triplicate at 37° C. Each incubation flask contained in a total volume of 2.1 ml, 10.5 mg cells (dry weight), 1 ml of Krebs-Henseleit buffer, pH 7.4, radioactive substrate (1 μCi [U-^14 C]alanine, 1 mCi^3 H2 O and 1 μmole alanine) and 0.3% glucose. The appropriate concentration of inhibitor was prepared in dimethylsulfoxide and added to the incubation flask. Dimethylsulfoxide had no effect on fatty acid synthesis. ^3 H2 O was used to determine the total rate of fatty acid synthesis independently of carbon precursors of acetyl CoA. [^14 C]alanine was used as an acetyl CoA precursor. Rates of fatty acid synthesis were determined as described previously, [A. C. Sullivan, J. Triscari, J. G. Hamilton and J. A. Ontko (1977). Hypolipidemic activity of (-)-hydroxycitrate, Lipids, 12: 1-9]. Data are expressed as nmoles ^3 H2 O or [^14 C]alanine converted into fatty acids per mg dry weight cells in 60 minutes.

[3] = system: intestinal absorption of triglycerides (corn oil); test: In vivo absorption of triglycerides (corn oil absorption)
[4] = target: T2, pancreatic lipase (Rattus norvegicus, UniProt P27657); test: In vitro pancreatic lipase screen ([14C]-triolein assay); type: biochemical; settings: read-out: Pancreatic Lipase Activity I50
T2 construct: stimulated to release pancreatic proteins by addition of 10^-5 M carbachol; from tissue; host or cells: pancreatic lobules of fasted Charles River female rats; released pancreatic juice, centrifuged
T2 sequence (P27657 17-465): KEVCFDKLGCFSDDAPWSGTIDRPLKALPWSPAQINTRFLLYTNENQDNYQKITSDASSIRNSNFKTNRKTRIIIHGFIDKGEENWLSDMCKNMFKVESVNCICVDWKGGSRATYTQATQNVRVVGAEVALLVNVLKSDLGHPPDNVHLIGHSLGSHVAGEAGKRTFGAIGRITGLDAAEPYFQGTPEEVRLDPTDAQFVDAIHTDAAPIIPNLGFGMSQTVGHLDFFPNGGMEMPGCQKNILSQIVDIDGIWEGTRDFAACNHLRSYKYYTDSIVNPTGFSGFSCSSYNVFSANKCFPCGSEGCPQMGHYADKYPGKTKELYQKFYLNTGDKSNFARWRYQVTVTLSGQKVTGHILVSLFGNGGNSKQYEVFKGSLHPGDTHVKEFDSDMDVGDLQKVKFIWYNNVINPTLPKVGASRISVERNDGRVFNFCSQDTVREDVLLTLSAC
Procedure: The method for assaying pacreatic lipase in vitro using [^14 C]-triolein was based on the method of Garfinkel and Schotz for lipoprotein lipase, [A. S. Garfinkel and M. C. Schotz (1972). […] Glycerol tri[1-^14 C]oleate (32 mM) was emulsified in 0.2 M Tris-HCl pH 8 containing 0.15 M NaCl, bovine serum albumin (15 mg/ml) and sodium taurocholate (1.4 mM) by sonication for three, one min intervals at 80 watts. Final assay volume was 1.0 ml. The reaction was initiated by the addition of enzyme and was allowed to proceed for 10 min. The reaction was linear for up to 20 min. The liberated free fatty acids were extracted into 0.1 M KOH and quantitated in a liquid scintillation counter using 2,5-bis-2-(5-tertbutylbenzoxazolyl)-tniophene (BBOT) scintillation fluid (Yorktown Research, South Hackensack, N.J.).
Ionophores were added to the above assay as solutions in either 90% ethanol or water, pH 8; 90% ethanol had no effect on the enzyme activity assayed by either method.

[5] = system: meal-fed Charles River rats; test: Food consumption and serum parameters in meal-fed rats (in vivo fatty acid synthesis experiments); design: species or system Charles River rat; settings: 60 mg/kg i.p., sodium salt, mean ± SE
Procedure: (§1) In the following examples, female rats (Charles River CD strain, 180-200 g) were housed individually in wire bottom cages in a temperature (22°) and light (12 hr light and 12 hr dark) regulated room. They had free access to Purina Rodent Chow and water.
Faster enzymatic procedure for serum triglycerides, Clinical Chemistry, 21: 1983-1985], cholesterol, [C. C. Allain, L. Poon, S. G. Chan, W. Richmond and P. Fu (1974). Enzymatic determination of total serum cholesterol, Clinical Chemistry, 20: 470-475] and glucose, [R. Konig, H. Dauwalder and R. Richterich (1971). Vergleichende Bestimmunogen der Uringlucosekonzentration mit der Polarimetrie und einer enzymatischen Methode (Hexokinase/Glucose-6-Phosphat-Dehydrogenase), Schweiz. Med. Wschr., 101: 860-866] by enzymatic procedures.

[6] = system: hepatic fatty acid synthesis; test: In vivo hepatic fatty acid synthesis in meal-fed rats; design: species or system Charles River rat; settings: 60 mg/kg i.p., sodium salt, mean ± SE
Procedure: as §1

[7] = read-out: Fatty Acid Synthesis 3H2O
[8] = read-out: Fatty Acid Synthesis [14C]alanine
[9] = Experiment 1, di-(N-methylglucamine), 325 mg/kg p.o.
[10] = Experiment 1, ethanolate, 145 mg/kg p.o.
[11] = Experiment 1, sodium, 140 mg/kg p.o.

CC[C@@H](C(=O)[C@@H](C)[C@@H](O)[C@H](C)CCc1c(Br)cc(C)c(O)c1C(=O)O)[C@H]1O[C@](CC)([C@H]2CC[C@](O)(CC)[C@H](C)O2)C[C@@H]1C [Bromolasalocid, Ethanolate]
Ki [1]: 100 µM

CC[C@@H](C(=O)[C@@H](C)[C@@H](O)[C@H](C)CCc1c(Br)cc(C)c(O)c1C(=O)O)[C@H]1O[C@](CC)([C@H]2CC[C@](O)(CC)[C@H](C)O2)C[C@@H]1C [Bromolasalocid, Na^+]
Ki [1]: 50 µM | activity at 500 µM [2, 7]: 14% | activity at 500 µM [2, 8]: 0% | activity at 1000 µM [2, 7]: 22% | activity at 1000 µM [2, 8]: 0%

CC[C@@H](C(=O)[C@@H](C)[C@@H](O)[C@H](C)CCc1c(Br)cc(C)c(O)c1C(=O)O)[C@H]1O[C@](CC)([C@H]2CC[C@](O)(CC)[C@H](C)O2)C[C@@H]1C [Bromolasalocid, di-(N-methylglucamine)]
Ki [1]: 160 µM

CC[C@@H](C(=O)[C@@H](C)[C@@H](O)[C@H](C)CCc1c(Br)cc(C)c(O)c1C(=O)O)[C@H]1O[C@](CC)([C@H]2CC[C@](O)(CC)[C@H](C)O2)C[C@@H]1C [Bromolasalocid]
Area under curve (corn oil absorption) [3, 9]: 660 | Area under curve, % of control [3, 9]: 60 % of control | Area under curve (corn oil absorption) [3, 10]: 704 | Area under curve, % of control [3, 10]: 64 % of control | Area under curve (corn oil absorption) [3, 11]: 659 | Area under curve, % of control [3, 11]: 60 % of control | IC50 [4]: 600 µM

Monensin
Food Consumption [5]: 16.1 ± 1.4 g | Fatty Acid Synthesis 3H2O converted [6]: 14.8 ± 4.0 μmoles per 1 g liver in 30 min | Fatty Acid Synthesis [14C]alanine converted [6]: 209 ± 64 nmoles per 1 g liver in 30 min
